Data published in paper PMC4065394 (The FEBS journal, 2014).
“And” between values parts separate entries of the source, which are not always exact repeats. Identical values can stand only once. “Also recorded” adds a separate entry of the source. Like-named read-outs stand apart in the source and are kept apart here.

How the values were obtained:
Y392F DXP synthase [1] = target: T1, Y392F DXP synthase (Escherichia coli, UniProt P77488, Y392F); assay type: biochemical, E. coli; conditions: for Km: Y392F, coupled assay, 37 °C
Y392F DXP synthase [2] = target: T1, Y392F DXP synthase; assay type: biochemical, E. coli; conditions: CD at 290 nm, 37 °C
R478A DXP synthase [3] = target: T2, R478A DXP synthase (Escherichia coli, UniProt P77488, R478A); assay type: biochemical, E. coli
R478A DXP synthase [4] = target: T2, R478A DXP synthase; assay type: biochemical, E. coli; conditions: for Km: R478A, coupled assay, 37 °C
R420A DXP synthase [5] = target: T3, R420A DXP synthase (Escherichia coli, UniProt P77488, R420A); assay: Substrate binding by intrinsic total protein fluorescence; parameters: species or system E. coli; conditions: D-GAP up to 15 mM
wild type DXP synthase [6] = target: T4, wild type DXP synthase (Escherichia coli, UniProt P77488); conditions: cited from earlier work
R420A DXP synthase [7] = target: T3, R420A DXP synthase; assay: Steady-state DXP formation monitored by CD at 290 nm; assay type: biochemical, E. coli; conditions: 37 °C, D-GAP 0.25 – 2 mM, 1 mM pyruvate
R478A DXP synthase [8] = target: T2, R478A DXP synthase; assay type: binding, E. coli; conditions: D-GAP up to 15 mM
wild type DXP synthase [9] = target: T4, wild type DXP synthase; assay: Substrate binding by intrinsic total protein fluorescence; parameters: species or system E. coli
wild type DXP synthase [10] = target: T4, wild type DXP synthase; conditions: 30 mM D-glyceraldehyde, 8 °C
wild type DXP synthase [11] = target: T4, wild type DXP synthase; assay: DX product formation from pyruvate and D-glyceraldehyde; assay type: biochemical, E. coli; conditions: 30 mM D-glyceraldehyde and 5 mM pyruvate, 8 °C
wild type DXP synthase [12] = target: T4, wild type DXP synthase; conditions: 6 °C; cited from earlier work
Y392F DXP synthase [13] = target: T1, Y392F DXP synthase; assay type: biochemical, E. coli; conditions: 6 °C, from pyruvate and D-GAP
R478A DXP synthase [14] = target: T2, R478A DXP synthase; assay type: biochemical, E. coli; conditions: 6 °C, from pyruvate and D-GAP
wild type DXP synthase [15] = target: T4, wild type DXP synthase; conditions: 6 °C, cited from earlier work
wild type DXP synthase [16] = target: T4, wild type DXP synthase; conditions: − D-GAP, 6 °C; cited from earlier work
R420A DXP synthase [17] = target: T3, R420A DXP synthase; conditions: − D-GAP, 6 °C, single turnover
R478A DXP synthase [18] = target: T2, R478A DXP synthase; conditions: − D-GAP, 6 °C, single turnover
Y392F DXP synthase [19] = target: T1, Y392F DXP synthase; conditions: + D-GAP (200 μM in second syringe), 6 °C
R420A DXP synthase [20] = target: T3, R420A DXP synthase; conditions: + D-GAP (2 mM in second syringe), 6 °C
Y392F DXP synthase [21] = target: T1, Y392F DXP synthase; conditions: − D-GAP, 6 °C, single turnover
R478A DXP synthase [22] = target: T2, R478A DXP synthase; conditions: + D-GAP (2 mM in second syringe), 6 °C
R478A DXP synthase [23] = target: T2, R478A DXP synthase; assay: biochemical; assay type: binding, E. coli
R420A DXP synthase [24] = target: T3, R420A DXP synthase; assay: biochemical; assay type: binding, E. coli
Y392F DXP synthase [25] = target: T1, Y392F DXP synthase; assay: CD titration with pyruvate; assay type: binding, E. coli
wild type DXP synthase [26] = target: T4, wild type DXP synthase; conditions: read-out: Kd^pyruvate (apparent), CD spectroscopy; cited from earlier work
Y392F DXP synthase [27] = target: T1, Y392F DXP synthase; assay: Substrate binding by intrinsic total protein fluorescence; parameters: species or system E. coli

## O=C[C@H](O)COP(=O)(O)O [D-GAP, D-glyceraldehyde 3-phosphate]
Y392F DXP synthase [1]; Y392F vs wild type
  decrease in kcat/Km^D-GAP compared to wild type: near eight-fold decrease
Y392F DXP synthase [1]; read-out: Km^D-GAP
  Km: 210 ± 20 µM
Y392F DXP synthase [2]
  Hill coefficient nH for D-GAP: 1.2 ± 0.1
R478A DXP synthase [3]; CD at 290 nm, 37 °C
  Hill coefficient nH for D-GAP: 1.1 ± 0.1
R478A DXP synthase [3]; read-out: Km^D-GAP, CD at 290 nm, 37 °C, D-GAP 0.15 – 2 mM, 1 mM pyruvate
  Km: 530 ± 100 µM
R478A DXP synthase [4]; R478A vs wild type
  increase in Km^D-GAP compared to wild type DXP synthase: 70 fold
R478A DXP synthase [4]; read-out: Km^D-GAP
  Km: 1600 ± 300 µM
R420A DXP synthase [5]
  fluorescence quenching upon titration of D-GAP: negligible changes in fluorescence; also recorded: quenching of fluorescence was not observed
Wild type DXP synthase [6]; read-out: Km^D-GAP
  Km: 23.5 ± 1.7 µM
R420A DXP synthase [7]
  saturation by D-GAP: saturation by D-GAP is not achieved; also recorded: Saturation was not achieved
R478A DXP synthase [8]
  fluorescence quenching upon titration of D-GAP: quenching of fluorescence was not observed; also recorded: negligible changes in fluorescence
Wild type DXP synthase [9]
  Kd: 2000 ± 500 µM

## O=C[C@H](O)CO [D-glyceraldehyde]
Wild type DXP synthase [10]
  rate of LThDP decarboxylation promoted with D-glyceraldehyde, k2: 21.5 ± 0.2 s⁻¹ and 21 s⁻¹

## CC(=O)[C@@H](O)[C@H](O)CO [DX, 1-deoxy-D-xylulose]
Wild type DXP synthase [11]
  overall rate of DX product formation, k4: 1.15 ± 0.7 s⁻¹
  overall rate of DX product formation, k4′: 0.5 ± 0.2 s⁻¹

## CC(=O)[C@@H](O)[C@H](O)COP(=O)(O)O [DXP, 1-deoxy-D-xylulose 5-phosphate]
Wild type DXP synthase [12]
  Formation of DXP, k4′ (slower phase): 0.29 ± 0.01 s⁻¹
Y392F DXP synthase [13]
  Formation of DXP, k4 (faster phase): 1.34 ± 0.12 s⁻¹
  Formation of DXP, k4′ (slower phase): 0.34 ± 0.01 s⁻¹
R478A DXP synthase [14]
  Formation of DXP, k4 (faster phase): 0.78 ± 0.08 s⁻¹
  Formation of DXP, k4′ (slower phase): 0.26 ± 0.02 s⁻¹

## Cc1ncc(C[n+]2c(C(C)(O)C(=O)O)sc(CCOP(=O)(O)OP(=O)(O)O)c2C)c(N)n1 (stereo not drawn) [LThDP, C2α-lactylthiamin diphosphate]
Wild type DXP synthase [15]
  D-GAP-promoted LThDP Decarboxylation, k2: k2 = 42.0 ± 1.0 s^−1
Wild type DXP synthase [15]; + D-GAP
  Formation of LThDP (re-synthesis), k1: k1 = 0.68 ± 0.01 s^−1
Wild type DXP synthase [16]
  Formation of LThDP, k1 (faster phase): 1.39 ± 0.05 s⁻¹
  Formation of LThDP, k1′ (slower phase): 0.16 ± 0.02 s⁻¹
  LThDP Decarboxylation, k2: k2 = 0.07 ± 0.006 s^−1
R420A DXP synthase [17]
  Formation of LThDP, k1 (faster phase): 1.24 ± 0.01 s⁻¹
  Formation of LThDP, k1′ (slower phase): 0.28 ± 0.002 s⁻¹
R478A DXP synthase [18]
  Formation of LThDP, k1 (faster phase): 0.85 ± 0.03 s⁻¹
  Formation of LThDP, k1′ (slower phase): 0.29 ± 0.02 s⁻¹
Y392F DXP synthase [19]
  Formation of LThDP (re-synthesis), k1: k1 = 0.82 ± 0.01 s^−1
R420A DXP synthase [20]
  Formation of LThDP (re-synthesis), k1: k1 = 0.67 ± 0.003 s^−1
Y392F DXP synthase [21]
  Formation of LThDP, k1 (faster phase): 1.06 ± 0.03 s⁻¹
  Formation of LThDP, k1′ (slower phase): 0.3 ± 0.01 s⁻¹
R478A DXP synthase [22]
  D-GAP-promoted LThDP Decarboxylation, k2: k2 = 36.5 ± 1.1 s^−1
  Formation of LThDP (re-synthesis), k1: k1 = 0.84 ± 0.004 s^−1

## CC(=O)C(=O)O [pyruvate]
Y392F DXP synthase [1]; Y392F vs wild type
  increase in Km^pyruvate compared to wild type: 1.5 fold
Y392F DXP synthase [1]; read-out: Km^pyruvate
  Km: 73 ± 4 µM
R478A DXP synthase [23]
  Kd: 80 ± 30 µM
R478A DXP synthase [23]; R478A, CD, 5 °C
  Hill coefficient nH for pyruvate: 1.0 ± 0.2
R420A DXP synthase [24]
  Kd: 37 ± 8 µM
R420A DXP synthase [24]; R420A, CD, 5 °C
  Hill coefficient nH for pyruvate: 1.2 ± 0.3
Y392F DXP synthase [25]
  Kd: 113 µM
R478A DXP synthase [4]; read-out: Km^pyruvate
  Km: 54 ± 7 µM
Wild type DXP synthase [26]
  Kd: 89.4 µM
Wild type DXP synthase [6]; read-out: Km^pyruvate, wild type
  Km: 49 ± 8 µM
Y392F DXP synthase [27]
  Kd: 230 ± 60 µM
Wild type DXP synthase [9]
  Kd: 230 ± 70 µM
